# Experimental data: patent US4740502A, “Semisynthetic erythromycin antibiotics” (Abbott Laboratories, priority 1986, dated 1988)
# Key:
# [1] = tested on: stomach, duodenum and jejunum; assay: Gastrointestinal motility (stimulating activity) in a dog model, strain gauges
# Experimental: Contractions in the gut were recorded with surgically implanted strain gauges. The contractile scores were determined according to the method of Jacoby, et al., as described in "Gastrointestinal Actions of Metoclopramide," Gastroenterology, Vol. 52, No. 4 (1967), pp. 676-684 by giving a numerical score to the height of each recorded contraction in the one hour period after administration of the test compound. […] Ratios were calculated for the stomach, duodenum and jejunum, and a final arithmetic mean index was calculated and reported in Table I.
# [2] = tested on: E. coli H560; assay: Agar dilution MIC, E. coli H560; settings: Escherichia coli, H560, 22 h
# [3] = tested on: Strep. pyogenes 930; assay: Agar dilution MIC, Strep. pyogenes 930; settings: Streptococcus pyogenes, 930, 22 h
# [4] = tested on: Staph. epidermidis 3519; assay: Agar dilution MIC, Staph. epidermidis 3519; settings: Staphylococcus epidermidis, 3519, 22 h
# [5] = tested on: Strep. faecium ATCC 8043; assay: Agar dilution MIC, Strep. faecium ATCC 8043; settings: Enterococcus faecium, ATCC8043, 22 h
# [6] = tested on: Acinetobacter SP CMX 669; assay: Agar dilution MIC, Acinetobacter SP CMX 669; settings: SPCMX669, 22 h
# [7] = tested on: Ent. aerogenes ATCC 10348; assay: Agar dilution MIC, Ent. aerogenes ATCC 10348; settings: Klebsiella aerogenes, ATCC10348, 22 h
# [8] = tested on: Pseudomonas aeruginosa 5007; assay: Agar dilution MIC, Pseudomonas aeruginosa 5007; settings: Pseudomonas aeruginosa, 5007, 22 h
# [9] = tested on: Providencia stuartii CMX 640; assay: Agar dilution MIC, Providencia stuartii CMX 640; settings: CMX640, 22 h
# [10] = tested on: Pseudomonas aeruginosa K799/WT; assay: Agar dilution MIC, Pseudomonas aeruginosa K799/WT; settings: 22 h
# [11] = tested on: Pseudomonas aeruginosa K799/61; assay: Agar dilution MIC, Pseudomonas aeruginosa K799/61; settings: K799/61, 22 h
# [12] = tested on: E. coli SS; assay: Agar dilution MIC, E. coli SS; settings: Escherichia coli, 22 h
# [13] = tested on: E. coli JUHL; assay: Agar dilution MIC, E. coli JUHL; settings: Escherichia coli, 22 h
# [14] = tested on: E. coli DC-2; assay: Agar dilution MIC, E. coli DC-2; settings: Escherichia coli, DC2, 22 h
# [15] = tested on: E. coli KNK 437; assay: Agar dilution MIC, E. coli KNK 437; settings: Escherichia coli, KNK437, 22 h
# [16] = tested on: Strep. bovis A5169; assay: Agar dilution MIC, Strep. bovis A5169; settings: Streptococcus equinus, A5169, 22 h
# [17] = tested on: Staph. aureus A5177; assay: Agar dilution MIC, Staph. aureus A5177; settings: Staphylococcus aureus, A5177, 22 h
# [18] = tested on: Strep. pyogenes EES61; assay: Agar dilution MIC, Strep. pyogenes EES61; settings: Streptococcus pyogenes, EES61, 22 h
# [19] = tested on: Staph. aureus CMX 686B; assay: Agar dilution MIC, Staph. aureus CMX 686B; settings: Staphylococcus aureus, CMX686B, 22 h
# [20] = tested on: Micrococcus luteus 9341; assay: Agar dilution MIC, Micrococcus luteus 9341; settings: Micrococcus luteus, 9341, 22 h
# [21] = tested on: Micrococcus luteus 4698; assay: Agar dilution MIC, Micrococcus luteus 4698; settings: Micrococcus luteus, 4698, 22 h
# [22] = tested on: Staph. aureus ATCC 6538P; assay: Agar dilution MIC, Staph. aureus ATCC 6538P; settings: Staphylococcus aureus, ATCC6538P, 22 h
# [23] = tested on: Pseudomonas cepacia 2961; assay: Agar dilution MIC, Pseudomonas cepacia 2961; settings: Burkholderia cepacia, 2961, 22 h
# [24] = tested on: Strep. agalactiae CMX 508; assay: Agar dilution MIC, Strep. agalactiae CMX 508; settings: Streptococcus agalactiae, CMX508, 22 h
# [25] = tested on: Klebsiella pneumoniae 8045; assay: Agar dilution MIC, Klebsiella pneumoniae 8045; settings: Klebsiella pneumoniae, 8045, 22 h
# [26] = tested on: Staph. epidermidis 3519 RARI; assay: Agar dilution MIC, Staph. epidermidis 3519 RARI; settings: Staphylococcus epidermidis, 22 h
# [27] = tested on: Pseudomonas aeruginosa BMH10; assay: Agar dilution MIC, Pseudomonas aeruginosa BMH10; settings: BMH10, 22 h
# [28] = 4 mg/kg intravenously, one hour period, mean of stomach, duodenum and jejunum ratios to erythromycin A lactobionate
compound,measurement,setting,value
"CC[C@H]1OC(=O)[C@H](C)[C@@H](O[C@H]2C[C@@](C)(OC)[C@@H](O)[C@H](C)O2)[C@H](C)[C@@H](O[C@@H]2O[C@H](C)C[C@H](N(C)C)[C@H]2O)[C@](C)(OC)C[C@@H](C)C(=O)[C@H](C)[C@@H](O)[C@]1(C)O [6-O--Me--Ery A, 6-O-methyl erythromycin A]",Gastrointestinal Motility Index,"[1]; in vivo, iv, 4 mg/kg",0.37
same,stimulation of the gastrointestinal tissues,"[1]; in vivo, iv, 4 mg/kg",less of a gastrointestinal response
"CC[C@H]1OC(=O)[C@H](C)[C@@H](O[C@H]2C[C@@](C)(OC)[C@@H](O)[C@H](C)O2)[C@H](C)[C@@H](O[C@@H]2O[C@H](C)C[C@H](N(C)C)[C@H]2O)[C@](C)(O)C[C@@H](C)C(=O)[C@H](C)[C@@H](O)[C@H]1C [Ery B, erythromycin B]",Gastrointestinal Motility Index,"[1]; in vivo, iv, 4 mg/kg",2.47
CC[C@H]1OC(=O)[C@H](C)[C@@H](O[C@H]2C[C@@](C)(OC)[C@@H](O)[C@H](C)O2)[C@H](C)[C@@H](O[C@@H]2O[C@H](C)C[C@H](N(C)C)[C@H]2O)[C@](C)(O)C[C@@H](C)C(=O)[C@H](C)[C@@H](O)[C@]1(C)O [Erythromycin A],MIC,[2],6.2 µg/mL
same,MIC,[3],> 100 µg/mL
same,MIC,[4],0.1 µg/mL
same,MIC,[5],0.05 µg/mL
same,MIC,[6],3.1 µg/mL
same,MIC,[7],50 µg/mL
same,MIC,[8],> 100 µg/mL
same,MIC,[9],> 100 µg/mL
same,MIC,[10],50 µg/mL
same,MIC,[11],1.56 µg/mL
"CC[C@H]1OC(=O)[C@H](C)[C@@H](O[C@H]2C[C@@](C)(OC)[C@@H](OC(N)=O)[C@H](C)O2)[C@H](C)[C@@H](O[C@@H]2O[C@H](C)C[C@H](N(C)C)[C@H]2O)[C@](C)(OC)C[C@@H](C)C(=O)[C@H](C)[C@@H](O)[C@]1(C)O [Example 1, 6-O-methyl-erythromycin A-4""-carbamate]",Gastrointestinal Motility Index,[1]; [28],0.03
same,MIC,[12],0.2 µg/mL
same,MIC,[13],12.5 µg/mL
same,MIC,[14],50 µg/mL
same,MIC,[2],6.2 µg/mL
same,MIC,[15],25 µg/mL
same,MIC,[16],0.02 µg/mL
same,MIC,[17],0.39 µg/mL
same,MIC,[3],> 100 µg/mL
same,MIC,[18],0.01 µg/mL
same,MIC,[19],0.05 µg/mL
same,MIC,[4],0.05 µg/mL
same,MIC,[20],0.02 µg/mL
same,MIC,[21],0.39 µg/mL
same,MIC,[22],0.02 µg/mL
same,MIC,[5],0.05 µg/mL
same,MIC,[23],50 µg/mL
same,MIC,[6],6.2 µg/mL
same,MIC,[24],0.02 µg/mL
same,MIC,[7],25 µg/mL
same,MIC,[25],50 µg/mL
same,MIC,[8],50 µg/mL
same,MIC,[26],0.1 µg/mL
same,MIC,[9],100 µg/mL
same,MIC,[27],50 µg/mL
same,MIC,[10],50 µg/mL
same,MIC,[11],1.56 µg/mL
"CC[C@H]1OC(=O)[C@H](C)[C@@H](O[C@H]2C[C@@](C)(OC)[C@@H](OC(N)=O)[C@H](C)O2)[C@H](C)[C@@H](O[C@@H]2O[C@H](C)C[C@H](N(C)C)[C@H]2O)[C@](C)(O)C[C@@H](C)C(=O)[C@H](C)[C@@H](O)[C@H]1C [Example 2, Erythromycin B-4""-carbamate]",Gastrointestinal Motility Index,[1]; [28],0.17
"CC[C@H]1OC(=O)[C@H](C)[C@@H](O[C@H]2C[C@@](C)(OC)[C@@H](OC(N)=O)[C@H](C)O2)[C@H](C)[C@@H](O[C@@H]2O[C@H](C)C[C@H](N(C)C)[C@H]2O)[C@](C)(O)C[C@@H](C)C(=O)[C@H](C)[C@@H](O)[C@]1(C)O [Example 4, Erythromycin A-4""-carbamate]",Gastrointestinal Motility Index,[1]; [28],0.11
CC[C@H]1OC(=O)[C@H](C)[C@@H](O[C@H]2C[C@@](C)(OC)[C@@H](O)[C@H](C)O2)[C@H](C)[C@@H](O[C@@H]2O[C@H](C)C[C@H](N(C)C)[C@H]2O)[C@](C)(O)C[C@@H](C)C(=O)[C@H](C)[C@@H](O)[C@]1(C)O [erythromycin A lactobionate],stimulation of the gastrointestinal tissues,"[1]; in vivo, iv, 4 mg/kg","pronounced stimulation of the stomach, duodenum, jejunum and ileum"
CC[C@H]1OC(=O)[C@H](C)[C@@H](O[C@H]2C[C@@](C)(OC)[C@@H](O)[C@H](C)O2)[C@H](C)[C@@H](O[C@@H]2O[C@H](C)C[C@H](N(C)C)[C@H]2O)[C@](C)(O)C[C@@H](C)C(=O)[C@H](C)[C@@H](O)[C@H]1C [erythromycin B lactobionate],stimulation of the gastrointestinal tissues,"[1]; in vivo, iv, 4 mg/kg","pronounced stimulation of the stomach, duodenum, jejunum and ileum"
